Test results from patent US20260272895A1, “METHODS AND KITS FOR DELIVERY OF COMPOUNDS INTO CELLS” (Yale University, priority 2023, published 2026).

Each compound was assayed on brain cell types (assay: In vivo two-photon imaging of mouse cortex after topical cortical administration of fluorophores). Conditions: cell type taking up the compound in vivo (Table 1).
Procedure: Briefly, animals are anaesthetized via intraperitoneal injections of ketamine/xylazine or via inhaled isoflurane. A region of the skull (3×3 mm) is gently removed with a high-speed drill and the underlying dura is removed. A small glass coverslip is placed over the skull to allow long term optical access for in vivo imaging. Labeling with fluorescent dyes is performed either via intravenous injections or topically application to the cortical surface for 20 min prior to glass cover placement. After recovery, in vivo images are acquired using a two-photon microscope (Bruker Technologies) equipped with a multimodal (fixed wavelength 1040 nm and tunable wavelength) InSight X3 two-photon laser (Spectra Physics) and 20× water immersion objective (Zeiss 1.0N.A.). The two-photon laser is appropriately tuned to excite particular fluorescent dyes and proteins as needed. In selected cases, following in vivo imaging, mice will be sacrificed and perfused for follow up immunohistochemistry and high-resolution confocal imaging (Leica SP8) to further confirm colocalization of dyes and cells expressing particular transporters.
One-month-old wild-type mice were anesthetized using a ketamine/xylazine solution at doses of 100 mg/kg and 10 mg/kg, respectively. The fur around the skull area was shaved, and buprenex (0.1 mg per kg) and carprofen (5 mg per kg) were administered subcutaneously. Mice were kept on a heating pad at 37° C., and anesthesia was periodically monitored. The skin was treated with povidone-iodine solution, followed by cleaning with ethanol, and eye ointment was applied. A small skin section was excised to expose the skull. Thinning of the skull was performed in a circular area, followed by delicately lifting of the remaining skull without harm to the underlying brain. Within the circular region, the dura was gently removed using fine forceps, and a 4 mm cover glass was softly pressed onto the brain surface and affixed to the skull. Fluorescent dyes were applied either through intravenous injections or topically to the cortical surface for 20 minutes before placing the glass cover. A customized head bar was attached either by adhesive (for acute imaging) or permanently implanted (using dental cement, for chronic imaging) onto the skull. Mice were imaged under a two-photon microscope (Prairie Technologies) with a mode-locked MaiTai tunable laser (Spectra Physics). Imaging was performed with a 20× water immersion objective (Zeiss, 1.0NA). Images were captured at depths up to 300 μm from the pial surface using excitation wavelengths ranging from 750 to 950 nm as previously described. Mice undergoing chronic imaging received a recovery period on a heating pad post-surgery, and buprenex (0.1 mg per kg) and carprofen (5 mg per kg) were administered for 3 days.
Batches of 10 compounds were applied through the craniotomy to the cortical surface before placing a cover glass window. No additional washings were performed, and the cover glass was placed, allowing up to 3 hours of imaging of the cortical surface with a two-photon microscope. Following imaging, the data were analyzed to identify potential patterns of cell-specific labeling. […] Positive batches underwent three additional rounds of imaging, with each batch being sequentially split, until a single compound displaying cell-type-specific labeling was identified. As these compounds were not initially purified, the labeling may have resulted from fluorescent byproducts of synthesis. Consequently, large-scale synthesis, purification and characterization (FIGS. 29A-29D) of the identified compounds were conducted. The purified compounds were subsequently retested using in vivo imaging to confirm cell type specificity.
It was reasoned that the best strategy to identify fluorophores with specific affinity to certain cell types and transport mechanisms would be by direct screening in the intact in vivo brain microenvironment. […]
`O=S(=O)([O-])c1cc(S(=O)(=O)O)ccc1C1=c2cc3c4c(c2Oc2cc(Cl)c(Cl)cc21)CCC[N+]=4CCC3` [Compound 12, 2-(11,12-dichloro-1,2,3,5,6,7-hexahydrochromeno[2,3-f]pyrido[3,2,1-ij]quinolin-4-ium-9-yl)-5-sulfobenzenesulfonate] was tested, and the Target was “Endothelial”.
`O=S(=O)([O-])c1cc(S(=O)(=O)O)ccc1C1=c2cc3c4c(c2Oc2cc(Cl)c(Br)cc21)CCC[N+]=4CCC3` [Compound 13, 2-(11-bromo-12-chloro-1,2,3,5,6,7-hexahydrochromeno[2,3-f]pyrido[3,2,1-ij]quinolin-4-ium-9-yl)-5-sulfobenzenesulfonate] was tested, and the Target was “Endothelial”.
For `O=S(=O)([O-])c1cc(S(=O)(=O)O)ccc1C1=c2cc3c4c(c2Oc2cc(Br)c(F)cc21)CCC[N+]=4CCC3` [Compound 14, 2-(12-bromo-11-fluoro-1,2,3,5,6,7-hexahydrochromeno[2,3-f]pyrido[3,2,1-ij]quinolin-4-ium-9-yl)-5-sulfobenzenesulfonate], the Target was “Endothelial”.
`O=S(=O)([O-])c1cc(S(=O)(=O)O)ccc1C1=c2cc3c4c(c2Oc2cc(Br)c(Cl)cc21)CCC[N+]=4CCC3` [Compound 15, 2-(12-bromo-11-chloro-1,2,3,5,6,7-hexahydrochromeno[2,3-f]pyrido[3,2,1-ij]quinolin-4-ium-9-yl)-5-sulfobenzenesulfonate] was tested, and the Target was “Endothelial”.
`O=S(=O)([O-])c1cc(S(=O)(=O)O)ccc1C1=c2cc3c4c(c2Oc2cc(I)c(Cl)cc21)CCC[N+]=4CCC3` [Compound 16, 2-(11-chloro-12-iodo-1,2,3,5,6,7-hexahydrochromeno[2,3-f]pyrido[3,2,1-ij]quinolin-4-ium-9-yl)-5-sulfobenzenesulfonate] was tested, and the Target was “Endothelial”.
`O=S(=O)([O-])c1cc(S(=O)(=O)O)ccc1C1=c2cc3c4c(c2Oc2c1ccc(F)c2F)CCC[N+]=4CCC3` [Compound 19, 2-(12,13-difluoro-1,2,3,5,6,7-hexahydrochromeno[2,3-f]pyrido[3,2,1-ij]quinolin-4-ium-9-yl)-5-sulfobenzenesulfonate] was tested, and the Target was “Endothelial”.
`O=S(=O)([O-])c1cc(S(=O)(=O)O)ccc1C1=c2cc3c4c(c2Oc2c1ccc(Cl)c2F)CCC[N+]=4CCC3` [Compound 20, 2-(12-chloro-13-fluoro-1,2,3,5,6,7-hexahydrochromeno[2,3-f]pyrido[3,2,1-ij]quinolin-4-ium-9-yl)-5-sulfobenzenesulfonate] was tested, and the Target was “Endothelial”.
In the case of `O=S(=O)([O-])c1cc(S(=O)(=O)O)ccc1C1=c2cc3c4c(c2Oc2c1ccc(Br)c2F)CCC[N+]=4CCC3` [Compound 21, 2-(12-bromo-13-fluoro-1,2,3,5,6,7-hexahydrochromeno[2,3-f]pyrido[3,2,1-ij]quinolin-4-ium-9-yl)-5-sulfobenzenesulfonate], the Target is reported as “Endothelial”.
In the case of `O=S(=O)([O-])c1cc(S(=O)(=O)O)ccc1C1=c2cc3c4c(c2Oc2c1ccc(F)c2Cl)CCC[N+]=4CCC3` [Compound 22, 2-(13-chloro-12-fluoro-1,2,3,5,6,7-hexahydrochromeno[2,3-f]pyrido[3,2,1-ij]quinolin-4-ium-9-yl)-5-sulfobenzenesulfonate], the Target is reported as “Endothelial”.
For `O=S(=O)([O-])c1cc(S(=O)(=O)O)ccc1C1=c2cc3c4c(c2Oc2c1ccc(Cl)c2Cl)CCC[N+]=4CCC3` [Compound 23, 2-(12,13-dichloro-1,2,3,5,6,7-hexahydrochromeno[2,3-f]pyrido[3,2,1-ij]quinolin-4-ium-9-yl)-5-sulfobenzenesulfonate], the Target was “Endothelial”.
In the case of `O=[N+]([O-])c1ccc2c(-c3ccc(S(=O)(=O)O)cc3S(=O)(=O)[O-])c3ccc(Br)cc3[o+]c2c1` [Compound 28, 2-(3-bromo-6-nitroxanthylium-9-yl)-5-sulfobenzenesulfonate], the Target is reported as “Endothelial”.
`Cc1ccc2c(-c3ccc(S(=O)(=O)O)cc3S(=O)(=O)[O-])c3ccc(Br)cc3[o+]c2c1` [Compound 29] was tested, and the Target was “Endothelial”.
For `O=S(=O)([O-])c1cc(S(=O)(=O)O)ccc1-c1c2ccc(Br)cc2[o+]c2cc(N3CCOCC3)ccc12` [Compound 30, 2-(3-bromo-6-morpholinoxanthylium-9-yl)-5-sulfobenzenesulfonate], the Target was “Endothelial”.
`O=S(=O)([O-])c1cc(S(=O)(=O)O)ccc1-c1c2ccc(Br)cc2[o+]c2ccc(-n3ccnc3)cc12` [Compound 31, 2-(6-bromo-2-(1H-imidazol-1-yl)xanthylium-9-yl)-5-sulfobenzenesulfonate] was tested, and the Target was “Endothelial”.
In the case of `O=S(=O)([O-])c1cc(S(=O)(=O)O)ccc1-c1c2ccc(Br)cc2[o+]c2ccc(S(=O)(=O)O)cc12` [Compound 32, 2-(6-bromo-2-sulfoxanthylium-9-yl)-5-sulfobenzenesulfonate], the Target is reported as “Endothelial”.
`O=S(=O)([O-])c1cc(S(=O)(=O)O)ccc1-c1c2ccc(Br)cc2[o+]c2ccc(-n3cncn3)cc12` [Compound 33, 2-(6-bromo-2-(1H-1,2,4-triazol-1-yl)xanthylium-9-yl)-5-sulfobenzenesulfonate] was tested, and the Target was “Endothelial”.
For `O=[N+]([O-])c1ccc2c(c1)Oc1c3c4c(cc1=C2c1ccc(S(=O)(=O)O)cc1S(=O)(=O)[O-])CCC[N+]=4CCC3` [Compound 35, 2-(12-nitro-1,2,3,5,6,7-hexahydrochromeno[2,3-f]pyrido[3,2,1-ij]quinolin-4-ium-9-yl)-5-sulfobenzenesulfonate], the Target was “Astrocyte”.
In the case of `CN(C)c1ccc2c(c1)Oc1c3c4c(cc1=C2c1ccc(S(=O)(=O)O)cc1S(=O)(=O)[O-])CCC[N+]=4CCC3` [Compound 36, 2-(12-(dimethylamino)-1,2,3,5,6,7-hexahydrochromeno[2,3-f]pyrido[3,2,1-ij]quinolin-4-ium-9-yl)-5-sulfobenzenesulfonate], the Target is reported as “Astrocyte”.
In the case of `O=C(O)CCc1ccc2c(c1)Oc1c3c4c(cc1=C2c1ccc(S(=O)(=O)O)cc1S(=O)(=O)[O-])CCC[N+]=4CCC3` [Compound 37, 2-(12-(2-carboxyethyl)-1,2,3,5,6,7-hexahydrochromeno[2,3-f]pyrido[3,2,1-ij]quinolin-4-ium-9-yl)-5-sulfobenzenesulfonate], the Target is reported as “Astrocyte”.
With `CN(C)c1ccc2c(-c3ccc(S(=O)(=O)O)cc3S(=O)(=O)[O-])c3cc(Br)ccc3[o+]c2c1` [Compound 38, 2-(2-bromo-6-(dimethylamino)xanthylium-9-yl)-5-sulfobenzenesulfonate] the Target was “Astrocyte”.
In the case of `CCN(CC)c1ccc2c(-c3ccc(S(=O)(=O)O)cc3S(=O)(=O)[O-])c3cc(Br)ccc3[o+]c2c1` [Compound 39, 2-(2-bromo-6-(diethylamino)xanthylium-9-yl)-5-sulfobenzenesulfonate], the Target is reported as “Endothelial”.
With `Cc1ccc2c(-c3ccc(S(=O)(=O)O)cc3S(=O)(=O)[O-])c3cc4c5c(c3[o+]c2c1)CCCN5CCC4` [Compound 40, 2-(12-methyl-2,3,6,7-tetrahydro-1H,5H-chromeno[2,3-f]pyrido[3,2,1-ij]quinolin-14-ium-9-yl)-5-sulfobenzenesulfonate] the Target was “Endothelial”.
For `O=S(=O)([O-])c1cc(S(=O)(=O)O)ccc1-c1c2ccc(B(O)O)cc2[o+]c2c3c4c(cc12)CCCN4CCC3` [Compound 41, 2-(12-borono-2,3,6,7-tetrahydro-1H,5H-chromeno[2,3-f]pyrido[3,2,1-ij]quinolin-14-ium-9-yl)-5-sulfobenzenesulfonate], the Target was “Endothelial”.
In the case of `CN(C)c1ccc2c(-c3ccc(S(=O)(=O)O)cc3S(=O)(=O)[O-])c3ccc(Br)cc3[o+]c2c1` [Compound 42, 2-(3-bromo-6-(dimethylamino)xanthylium-9-yl)-5-sulfobenzenesulfonate], the Target is reported as “Endothelial”.
With `CN(C)c1ccc2c(-c3ccc(S(=O)(=O)O)cc3S(=O)(=O)[O-])c3ccc(N(C)C)cc3[o+]c2c1` [Compound 43, 2-(3,6-bis(dimethylamino)xanthylium-9-yl)-5-sulfobenzenesulfonate] the Target was “Endothelial”.

Same assay, conditions: topical cortical administration, 50 μM, wild type mice
`CN(C)c1ccc2c(-c3ccc(S(=O)(=O)O)cc3S(=O)(=O)[O-])c3ccc(N(C)C)cc3[o+]c2c1` [Compound 43, 2-(3,6-bis(dimethylamino)xanthylium-9-yl)-5-sulfobenzenesulfonate] was tested, and the “cellular labeling in cortex” value was “robust endothelial specific uptake”.
